Source: PMC9496563, “Functional Evaluation and Nephrotoxicity Assessment of Human Renal Proximal Tubule Cells on a Chip” (Biosensors, 2022)
Like-named read-outs stand apart in the source and are kept apart here. Values belong to the compound of their own block, whether it stands above or below them.

Tests used:
hRPTECs [1] = assay: Active absorption (Papp) through hRPTECs on the iBAC; type: in vitro ADME, human; settings: for Papp value: hRPTECs on the iBAC, day 4, two hours of dynamic absorption, FITC-albumin (Megalin/Cubilin), ASP+ (OCT2), 5-CF (OAT1)
Description: (§1) After the microdevice was assembled, it was exposed to ultraviolet light for 30 min. The porous membrane was coated with collagen type I hydrogel at 37 °C for 2 h. The hRPTECs or HK2 cells (2 × 10^5 cells/ cm^2) were seeded on the lower microfluidic channel and incubated upside down at 37 °C for 2 h, allowing the seeded hRPTECs or HK2 cells to attach to the porous membrane surface. Then, 100 μL of the culture medium was added to each chamber and the device was placed on the iBAC Rocker (MR100110, Daxiang biotech, Beijing, China) for dynamic culture.
(§2) After two hours of dynamic absorption, the sample concentrations of FITC-albumin (Ex = 495 nm, Em = 535 nm), ASP+ (Ex = 474 nm, Em = 606 nm) and 5−CF (Ex = 490 nm, Em = 515 nm) were detected by using a microplate reader (BMG Labtech, Germany).
(§3) The Papp was calculated using the equation below:Papp [cm/s] = (1/AC0)(dQ/dt) where A = area of mass transfer, C0 = donor concentration of reagent in the upper medium, and dQ/dt = transmembrane transportation rate.

HK2 cells [2] = assay: Active absorption (Papp) through HK2 model on the iBAC; type: in vitro ADME, human; settings: day 4
Description: as §1, §2, §3

hRPTECs [3] = assay: Active absorption (Papp) through hRPTECs on the static Transwell; type: in vitro ADME, human; settings: day 4
Description: as §2, §3

hRPTECs [4] = type: cell-based
Description: as §1
(§4) The Live/Dead kit (Thermo Fisher, Waltham, MA, USA), LDH kit (Life Technologies, Paisley, UK) and CellTiter-Glo (Promega, Madison, WI, USA) were used to evaluate cell viability on the iBAC. These assays were performed on test compound-treated monolayers following the manufacturer’s instructions. The assay protocols are described briefly here. In the live/dead cell assay, the cells were incubated with the live/dead cell imaging reagents for 15–30 min at 37 °C and observed under a fluorescent microscope. The viable cells were stained green, while the dead ones were stained red. In the CellTiter-Glo luminescent cell viability assay, the cells were incubated with the CellTiter-Glo reagents for 30 min at room temperature and detected with a microplate reader. For the LDH assay, 50 μL of medium from each well of the treatment plates was transferred into fresh 96-well plates and an equal volume of LDH reaction mixture was added. The samples were incubated at room temperature for 30 min before the reaction was stopped by adding 50 μL of stop solution. The absorbance was then taken at 490 nm and 680 nm using a microplate reader (BMG Labtech, Germany).

HK2 cells [5] = assay: cells; type: cell-based; settings: HK2 cells on the iBAC, 48 h; for IC50: Homo sapiens, HK-2, apical side, read-out: IC50 (cell viability)
Description: as §1, §4

hRPTECs [6] = type: cell-based, human; settings: hRPTECs on the iBAC, 24 h
Description: as §1
as §4, with “The viable cells were stained green, while the dead ones were stained red.” left out, “For the LDH assay, 50 μL of medium from each well of the treatment plates was transferred into fresh 96-well plates and an equal volume of LDH reaction mixture was added. The samples were incubated at room temperature for 30 min before the reaction was stopped by adding 50 μL of stop solution.” left out

HK2 cells [7] = assay: LDH release from HK2 cells on the iBAC; type: cell-based, human; settings: 24 h
Description: as §1
as §4, with “The viable cells were stained green, while the dead ones were stained red.” left out, “For the LDH assay, 50 μL of medium from each well of the treatment plates was transferred into fresh 96-well plates and an equal volume of LDH reaction mixture was added. The samples were incubated at room temperature for 30 min before the reaction was stopped by adding 50 μL of stop solution.” left out

P-gp [8] = molecular target: T1, P-gp (Homo sapiens, UniProt P08183); assay: P-gp efflux function (rhodamine 123 with or without verapamil), hRPTECs on the iBAC; settings: hRPTECs model, without inhibitor
P-gp [9] = molecular target: T1, P-gp; assay: P-gp efflux function (rhodamine 123 with or without verapamil), HK2 model on the iBAC; settings: without inhibitor
P-gp [10] = molecular target: T1, P-gp; assay: in vitro
BCRP [11] = molecular target: T2, BCRP (Homo sapiens, UniProt Q9UNQ0); assay: BCRP efflux function (DiOC2 with or without Ko143), hRPTECs on the iBAC; type: in vitro ADME
T2 sequence (Q9UNQ0 1-655): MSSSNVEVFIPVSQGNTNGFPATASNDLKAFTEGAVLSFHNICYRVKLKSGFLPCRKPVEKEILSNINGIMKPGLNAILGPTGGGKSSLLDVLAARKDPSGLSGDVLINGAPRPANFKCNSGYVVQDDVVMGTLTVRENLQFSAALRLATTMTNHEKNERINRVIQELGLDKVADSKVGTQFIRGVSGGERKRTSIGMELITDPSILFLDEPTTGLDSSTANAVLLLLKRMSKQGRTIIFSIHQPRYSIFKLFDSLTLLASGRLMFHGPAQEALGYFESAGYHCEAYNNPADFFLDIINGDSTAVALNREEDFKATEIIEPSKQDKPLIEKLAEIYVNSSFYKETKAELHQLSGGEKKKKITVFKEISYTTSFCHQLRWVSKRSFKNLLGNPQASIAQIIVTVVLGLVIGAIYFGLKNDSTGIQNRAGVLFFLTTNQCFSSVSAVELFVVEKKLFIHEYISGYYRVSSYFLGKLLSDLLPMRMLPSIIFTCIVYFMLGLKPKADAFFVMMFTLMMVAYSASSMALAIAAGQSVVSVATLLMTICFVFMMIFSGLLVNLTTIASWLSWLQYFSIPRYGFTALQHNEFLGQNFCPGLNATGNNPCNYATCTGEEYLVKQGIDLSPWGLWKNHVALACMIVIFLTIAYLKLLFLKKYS
Description: as §3

BCRP [12] = molecular target: T2, BCRP; assay: BCRP efflux function (DiOC2 with or without Ko143), HK2 model on the iBAC; type: in vitro ADME; settings: without inhibitor
Description: as §3

T1 sequence (P08183 whole entry): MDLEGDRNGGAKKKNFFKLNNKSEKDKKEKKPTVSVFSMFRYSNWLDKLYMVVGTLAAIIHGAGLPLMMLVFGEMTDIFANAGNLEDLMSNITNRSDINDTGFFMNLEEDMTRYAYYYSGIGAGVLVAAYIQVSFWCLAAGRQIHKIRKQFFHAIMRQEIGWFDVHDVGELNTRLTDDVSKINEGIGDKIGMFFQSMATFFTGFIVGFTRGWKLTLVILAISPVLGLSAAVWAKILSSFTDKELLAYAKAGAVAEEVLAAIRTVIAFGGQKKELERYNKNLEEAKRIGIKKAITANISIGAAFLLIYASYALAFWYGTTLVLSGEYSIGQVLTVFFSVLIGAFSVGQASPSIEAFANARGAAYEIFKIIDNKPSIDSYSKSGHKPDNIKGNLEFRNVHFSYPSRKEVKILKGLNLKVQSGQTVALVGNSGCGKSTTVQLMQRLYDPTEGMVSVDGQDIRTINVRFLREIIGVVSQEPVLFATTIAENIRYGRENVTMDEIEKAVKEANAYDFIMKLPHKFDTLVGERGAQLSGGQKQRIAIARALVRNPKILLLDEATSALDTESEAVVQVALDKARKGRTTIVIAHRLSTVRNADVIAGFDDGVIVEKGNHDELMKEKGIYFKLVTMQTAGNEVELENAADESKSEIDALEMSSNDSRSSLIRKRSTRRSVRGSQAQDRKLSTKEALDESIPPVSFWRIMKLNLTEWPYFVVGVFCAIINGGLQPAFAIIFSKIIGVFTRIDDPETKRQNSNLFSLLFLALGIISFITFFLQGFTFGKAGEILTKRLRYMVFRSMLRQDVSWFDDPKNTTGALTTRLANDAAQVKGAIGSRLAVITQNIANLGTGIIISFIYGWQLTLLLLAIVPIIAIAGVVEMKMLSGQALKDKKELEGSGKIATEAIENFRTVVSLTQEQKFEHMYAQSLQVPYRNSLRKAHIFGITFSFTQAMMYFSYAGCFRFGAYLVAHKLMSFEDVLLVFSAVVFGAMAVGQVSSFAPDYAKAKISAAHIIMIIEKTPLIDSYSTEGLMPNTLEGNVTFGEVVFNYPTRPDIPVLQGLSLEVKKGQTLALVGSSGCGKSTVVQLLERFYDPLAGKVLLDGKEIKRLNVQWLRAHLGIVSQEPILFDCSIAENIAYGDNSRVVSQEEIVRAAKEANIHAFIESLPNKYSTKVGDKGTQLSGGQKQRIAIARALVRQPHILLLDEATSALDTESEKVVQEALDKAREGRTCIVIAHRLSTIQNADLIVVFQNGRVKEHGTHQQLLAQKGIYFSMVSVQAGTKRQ

Compound: COc1cccc2c1C(=O)c1c(O)c3c(c(O)c1C2=O)C[C@@](O)(C(=O)CO)C[C@@H]3O[C@H]1C[C@H](N)[C@H](O)[C@H](C)O1 [doxorubicin]
- Toxicity on the apical side (cell viability) (hRPTECs [4]): induced toxicity
- Toxicity on the basal side (cell viability) (hRPTECs [4]): only induced nephrotoxicity on the apical side dosing
- IC50 (HK2 cells [5]): 14.2 µM

Compound: CN/C(=N/CCSCc1nc[nH]c1C)NC#N [cimetidine, Cimetidine]
- Relative LDH release with cisplatin in the presence of the cimetidine (hRPTECs [6]): 93%
- Relative LDH release with cisplatin in the presence of the cimetidine (HK2 cells [7]): 109%

Compound: CCN(CC)CCNC(=O)c1c(C)[nH]c(/C=C2\C(=O)Nc3ccc(F)cc32)c1C [sunitinib]
- Toxicity on the apical side (cell viability) (hRPTECs [4]): induced toxicity
- Toxicity on the basal side (cell viability) (hRPTECs [4]): only induced nephrotoxicity on the apical side dosing
- IC50 (HK2 cells [5]): 29 µM

Compound: polymyxin B
- Toxicity on the apical side (cell viability) (hRPTECs [4]; hRPTECs on the iBAC, apical administration, 48 h): induced toxicity
- Toxicity on the basal side (cell viability) (hRPTECs [4]; hRPTECs on the iBAC, basal administration, 48 h): induced toxicity
- Toxicity on both sides (cell viability) (HK2 cells [5]; apical and basal administration): not toxic

Continued, in another order:

- Papp value (hRPTECs [1]): 9.2e-06 cm/s
- Papp value (HK2 cells [2]): 2.3e-06 cm/s
Compound: CN(C)c1ccc(/C=C/c2cc[n+](C)cc2)cc1.[I-] [ASP+, 4-Di-1-ASP]
- Papp value, iBAC compared with Transwell (hRPTECs [1]; hRPTECs, day 4): significantly higher than that on the Transwell

- Papp value (hRPTECs [1]): 3.9e-08 cm/s
- Papp value (HK2 cells [2]): 9e-09 cm/s
- Papp value (hRPTECs [3]): 2e-09 cm/s
Compound: 5(6)-Carboxyfluorescein [5−CF]

- Cumulative amount of substrate in cells (P-gp [8]): very low
- Cumulative amount of substrate in cells (P-gp [9]): very low
- Papp at 2 h, 2 μM (P-gp [10]): 13 ×10⁻⁶ cm/s
Compound: COC(=O)c1ccccc1-c1c2ccc(=N)cc-2oc2cc(N)ccc12 [rhodamine 123, Rhodamine 123]

- Cumulative amount of substrate in cells (BCRP [11]; hRPTECs model, without inhibitor): very low
- Papp value of DiOC2 without Ko143 (BCRP [11]; hRPTECs on the iBAC, DiOC2 10 μM): 4.6e-06 cm/s
- Papp value of DiOC2 with Ko143 (BCRP [11]; hRPTECs on the iBAC, DiOC2 10 μM, Ko143 10 μM): 4.1e-06 cm/s
- Cumulative amount of substrate in cells (BCRP [12]): very low
Compound: CCN1/C(=C/C=C/c2oc3ccccc3[n+]2CC)Oc2ccccc21.[I-] [DiOC2]
